Measured values from publication PMC8222713, “Variation of Two S3b Residues in KV4.1–4.3 Channels Underlies Their Different Modulations by Spider Toxin κ-LhTx-1” (Frontiers in Pharmacology, 2021).
Where a SMILES comes first, the peptide text is derived from it. Bridges are numbered along the chain shown (N, C = ends).

Experiments:
[1] = tested on: KV4.1/282TD (P282T/K283D double mutant); assay: Whole-cell patch clamp, KV4.1/282TD in CHO-K1 cells; assay type: cell-based, mouse
Procedure: (§1) The cDNA of hKV1.1, hKV1.3, rKV1.4, hKV1.5, rKV2.1, hKV3.1–3.4, mKV4.1, rKV4.2, and rKV4.3 were subcloned in the eukaryotic expression vector pCDNA3.1 or pCMV-blank. Channel mutants were made by a site-directed mutation method. Briefly, a pair of oppositely directed primers with 15 bp overlap at their 5′ ends and the designed mutation site were used to amplify the parental channel plasmid, then the PCR mix was treated with DpnI to remove the template. 10 μL digestion mix was directly used to transform 100 μL DH5α chemical competent cells. The correct mutation made by this procedure was finally confirmed by DNA sequencing. CHO-K1 cells (ATCC® CCL-61™) were grown in DMEM-F12 mixed medium (1:1) supplemented with 10% FBS and maintained in standard conditions (saturated humidity, 37°C, 5% CO2). Channel plasmid was co-transfected with pEGFP-N1 (encodes the green fluoresence protein) into CHO-K1 cells using lipofectamine 2000 following the manufacturer’s instructions. 4–6 h after transfection, cells were seeded onto poly-lysine (PLL) coated coverslips, and 24–36 h later, transfected cells were ready for patch-clamp analysis. It should be note that KV4.2 and its mutants were also co-expressed with hKChIP1 to promote their functional expressions.
(§2) Whole-cell patch clamp recording was performed in an electrophysiology platform equipped with MultiClamp 700B amplifier and Axon Digidata 1550 AD/DA convertor (Axon Instruments, Irvine, CA, United States). Data were acquired using the pClamp software (Axon Instruments, Irvine, CA, United States). All experiments were performed at room temperature. The bath solution contains (in mM): 140 NaCl, 5 KCl, 1 MgCl2, 2 CaCl2, 10 glucose, and 10 HEPES (pH = 7.3). The pipette solution contains (in mM): 140 KCl, 2.5 MgCl2, 11 EGTA, and 10 HEPES (pH = 7.3). Series resistance was kept below 10 MΩ and compensated to 80%. The concentration–response curves were fitted by a Hill logistic equation to estimate the potency (IC50) of the toxin. The whole cell conductance (G) at each depolarizing voltage (V) was determined using the equation: G = I/(V−Vrev), where I and Vrev represents the current amplitude and the reversal potential, respectively. In the present study, Vrev for K^+ current is determined to be −85.61 mV using the Nernst equation. G-V curve was obtained by plotting the normalized G as a function of V and fitted by the Boltzmann equation: y = 1/{1 + exp [(Va−V)/K]}, in which Va, V, and K represents half-maximum activation voltage, test voltage and slope factor, respectively. The steady-state fast inactivation of KV4 channels was measured using a classical two-pulses protocol: cell was held at −120 mV, and a train of conditional voltages (−120–40 mV, in 10 mV increment, 1,000 ms) were applied to induce channel inactivation, followed by a +60 mV test pulse (300 ms) to assess the proportion of non-inactivated channels; the sweep interval was set to 10 s. Currents at the test pulse (I) were normalized to the maximum value (Imax) and plotted as a function of the conditional voltage (V), the curve was fitted by the Boltzmann equation: I/Imax = A + (1−A)/{1 + exp [(V−Vh)/K]}, where Vh is the half-maximum inactivation voltage, A represents the minimum channel availability, and K is the slope factor. Gating currents of KV4.1–4.3 channels were measured as previously reported ([Tilley et al., 2019]). Briefly, the ionic pore currents were abolished by replacing K^+ with NMDG^+ in the pipette solution, and 10 µM Cs^+ was present in the bath solution to occupy the selectivity filter of KV channels to prevent decay of the gating currents during recording.
(§3) Data were presented as MEAN ± SEM, n represents the number of separate experimental cells. Data were analyzed using the software Clampfit 10.5 (Axon Instruments, Irvine, CA, United States), Graphpad Prism 5.01 (GraphPad Software, La Jolla, CA, United States) and Excel 2010 (Microsoft Corporation, Redmond, WA, United States). […]

[2] = tested on: KV4.2/280PK (T280P/D281K double mutant); assay: Whole-cell patch clamp, KV4.2/280PK (with hKChIP1) in CHO-K1 cells; assay type: cell-based, rat
Procedure: as §1, §2, §3

KV4.3 channel (rKV4.3) = target: T1, KV4.3 channel (rKV4.3) (Rattus norvegicus, UniProt Q62897); assay: Whole-cell patch clamp, KV4.3 in CHO-K1 cells; assay type: cell-based
T1 construct: expressed in transfected cells; host or cells: CHO-K1 (transient, co-transfected with pEGFP-N1)
T1 sequence (Q62897 1-655): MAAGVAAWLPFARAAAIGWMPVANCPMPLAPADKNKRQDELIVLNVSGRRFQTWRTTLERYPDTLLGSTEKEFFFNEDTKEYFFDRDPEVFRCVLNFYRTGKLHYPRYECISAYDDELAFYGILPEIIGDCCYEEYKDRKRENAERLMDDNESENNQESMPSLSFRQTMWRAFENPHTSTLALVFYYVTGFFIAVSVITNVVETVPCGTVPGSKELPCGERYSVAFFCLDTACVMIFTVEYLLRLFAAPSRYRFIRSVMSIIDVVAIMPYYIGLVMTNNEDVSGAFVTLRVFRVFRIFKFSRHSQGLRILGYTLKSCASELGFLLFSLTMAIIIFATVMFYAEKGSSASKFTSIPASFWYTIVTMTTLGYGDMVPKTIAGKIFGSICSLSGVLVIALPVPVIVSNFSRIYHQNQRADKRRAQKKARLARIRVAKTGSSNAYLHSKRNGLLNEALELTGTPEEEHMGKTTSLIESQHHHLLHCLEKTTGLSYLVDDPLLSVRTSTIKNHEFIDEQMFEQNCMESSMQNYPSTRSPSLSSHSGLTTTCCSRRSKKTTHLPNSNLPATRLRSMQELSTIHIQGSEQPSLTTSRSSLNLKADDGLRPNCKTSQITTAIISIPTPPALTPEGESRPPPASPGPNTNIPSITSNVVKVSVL
Procedure: as §1, §2, §3

KV4.1/F280V mutant = assay: Whole-cell patch clamp, KV4.1/F280V in CHO-K1 cells; assay type: cell-based, mouse; conditions: +30 mV, n = 5
Procedure: The cDNA of hKV1.1, hKV1.3, rKV1.4, hKV1.5, rKV2.1, hKV3.1–3.4, mKV4.1, rKV4.2, and rKV4.3 were subcloned in the eukaryotic expression vector pCDNA3.1 or pCMV-blank. Channel mutants were made by a site-directed mutation method. Briefly, a pair of oppositely directed primers with 15 bp overlap at their 5′ ends and the designed mutation site were used to amplify the parental channel plasmid, then the PCR mix was treated with DpnI to remove the template. 10 μL digestion mix was directly used to transform 100 μL DH5α chemical competent cells. The correct mutation made by this procedure was finally confirmed by DNA sequencing. […] 4–6 h after transfection, cells were seeded onto poly-lysine (PLL) coated coverslips, and 24–36 h later, transfected cells were ready for patch-clamp analysis. […]
Whole-cell patch clamp recording was performed in an electrophysiology platform equipped with MultiClamp 700B amplifier and Axon Digidata 1550 AD/DA convertor (Axon Instruments, Irvine, CA, United States). […] The whole cell conductance (G) at each depolarizing voltage (V) was determined using the equation: G = I/(V−Vrev), where I and Vrev represents the current amplitude and the reversal potential, respectively. In the present study, Vrev for K^+ current is determined to be −85.61 mV using the Nernst equation. […] Gating currents of KV4.1–4.3 channels were measured as previously reported ([Tilley et al., 2019]). […]

[3] = 10 μM κ-LhTx-1, G-V, mean ± SEM, n = 5
[4] = 10 μM κ-LhTx-1, two-pulse protocol, mean ± SEM, n = 5
[5] = Va shift by 10 μM κ-LhTx-1 vs control, mean ± SEM
[6] = Vh shift by 10 μM κ-LhTx-1 vs control, mean ± SEM
[7] = 10 μM κ-LhTx-1, G-V, mean ± SEM, n = 6
[8] = 10 μM κ-LhTx-1, KV4.3, G-V, mean ± SEM, n = 10
[9] = 10 μM κ-LhTx-1, KV4.3, two-pulse protocol, mean ± SEM, n = 7

## CC[C@H](C)[C@@H]1NC(=O)[C@H](CCC(N)=O)NC(=O)[C@@H]2CSSC[C@@H]3NC(=O)[C@H](CC(C)C)NC(=O)[C@H](CC(N)=O)NC(=O)[C@H](CCSC)NC(=O)[C@H](Cc4c[nH]c5ccccc45)NC(=O)[C@H](CO)NC(=O)[C@H](C)NC(=O)[C@@H](NC(=O)[C@H](CCC(=O)O)NC(=O)[C@H](CCC(N)=O)NC(=O)[C@H](C)NC(=O)[C@H](CC(=O)O)NC(=O)[C@@H](N)CCC(=O)O)CSSC[C@H](NC(=O)[C@H](CSSC[C@@H](C(=O)N[C@@H](CCCCN)C(=O)N[C@@H](Cc4ccc(O)cc4)C(=O)N[C@@H](CCCCN)C(=O)N[C@@H](CC(C)C)C(N)=O)NC(=O)[C@H](Cc4c[nH]c5ccccc45)NC1=O)NC(=O)[C@H](CCCCN)NC(=O)[C@H](CCCCN)NC(=O)[C@H](CCC(=O)O)NC(=O)CNC3=O)C(=O)N[C@@H](CCC(=O)O)C(=O)NCC(=O)N[C@@H](Cc1ccc(O)cc1)C(=O)N[C@@H](C(C)C)C(=O)N2 [κ-LhTx-1] (H-EDAQECASWMNLCGEKKCCEGYVCQIWCKYKL-NH2; disulfide 6-19, 13-24, 18-28 (inferred); N-terminus and C-terminus assumed)
[1]; [3]
  Va (steady-state activation): 29.00 ± 0.52 mV
  k, slope factor (steady-state activation): 25.50 ± 0.51 mV
[1]; [4]
  Vh (steady-state inactivation): -56.22 ± 2.80 mV
  k, slope factor (steady-state inactivation): 5.95 ± 0.32 mV
[1]; 10 μM, +100 mV
  inhi%(min): approaching zero
[1]; [5]
  ∆Va (steady-state activation): 37.82 ± 2.83 mV
[1]; [6]
  ∆Vh (steady-state inactivation): 3.38 ± 3.15 mV
[2]; 10 μM
  ∆Va and inhi%(min) vs KV4.1: not significantly different from those in KV4.1
[2]; [7]
  Va (steady-state activation): 82.17 ± 1.67 mV
  k, slope factor (steady-state activation): 13.22 ± 1.15 mV
[2]; [4]
  Vh (steady-state inactivation): -9.93 ± 2.94 mV
  k, slope factor (steady-state inactivation): 11.46 ± 1.10 mV
[2]; [5]
  ∆Va (steady-state activation): 102.8 ± 3.22 mV
[2]; [6]
  ∆Vh (steady-state inactivation): 43.66 ± 3.77 mV
KV4.3 channel (rKV4.3); [8]
  Va (steady-state activation): 46.86 ± 1.52 mV
  k, slope factor (steady-state activation): 20.45 ± 0.30 mV
KV4.3 channel (rKV4.3); [9]
  Vh (steady-state inactivation): -30.87 ± 2.23 mV
  k, slope factor (steady-state inactivation): 6.21 ± 0.43 mV
KV4.3 channel (rKV4.3); KV4.3
  reversibility of inhibition: in a reversible manner
KV4.3 channel (rKV4.3); KV4.3, 10 µM, inhibition ratio at each depolarizing voltage, n = 5–8
  voltage-dependence of inhibition: decreased quickly with the increment of the depolarizing voltage
KV4.3 channel (rKV4.3); KV4.3, 10 µM, n = 5–8
  I-V relationship shift: only a small shift
KV4.3 channel (rKV4.3); KV4.3 at Va depolarizing voltage
  current inhibition at Va: almost fully inhibited
KV4.3 channel (rKV4.3); Va shift by 10 μM κ-LhTx-1 vs control, KV4.3, mean ± SEM
  ∆Va (steady-state activation): 39.88 ± 2.19 mV
KV4.3 channel (rKV4.3); Vh shift by 10 μM κ-LhTx-1 vs control, KV4.3, mean ± SEM
  ∆Vh (steady-state inactivation): 14.83 ± 3.34 mV
KV4.1/F280V mutant
  potency vs wild-type KV4.1: only slightly reduced κ-LhTx-1 potency
